The experiment has as its system HeLa cells. As to the kind of experiment: Effect of chemotherapeutic drugs on PNC prevalence in cultured HeLa cells. The format is cell-based, human. The method, then: Cultured HeLa cells, whose PNC prevalence is above 95%, were treated with various chemotherapeutic drugs.

*1 amine or outer side, *2 acyl side, *3 side chain or, on linkers, in order; H or OH if unused. Where a SMILES comes first, the peptide text is derived from it. Bridges are numbered along the chain shown (N, C = ends). Roman numbers before positions name the chains, in order. [ ]: non-standard residue; d: D form. Actinocin(9to1) = Cc1c2oc3c(C)ccc(C(=O)[*:1])c3nc-2c(C(=O)[*:2])c(N)c1=O; NMeV = CN[C@H](C(=O)O)C(C)C; Sar = CNCC(=O)O

This note sets out measurements from patent publication US8241862B2, “Perinucleolar compartment as a cancer marker” (Northwestern University, priority 2002, dated 2012).

Turning to `O=c1[nH]cc(F)c(=O)[nH]1` [5′-fluorouracil], the “Effect on PNC” value (1 to 5 μg/ml, 16 hours) is listed as “No effect on PNC structure”. Take `COc1cc(NS(C)(=O)=O)ccc1Nc1c2ccccc2nc2ccccc12` [AMSA]: for the setting “5 to 40 μM, 16 hours”, the “Effect on PNC” value was “No effect on PNC structure”. With `Cc1c2oc3c(C)ccc(C(=O)N[C@@H]4C(=O)N[C@H](C(C)C)C(=O)N5CCC[C@H]5C(=O)N(C)CC(=O)N(C)[C@@H](C(C)C)C(=O)O[C@@H]4C)c3nc-2c(C(=O)N[C@@H]2C(=O)N[C@H](C(C)C)C(=O)N3CCC[C@H]3C(=O)N(C)CC(=O)N(C)[C@@H](C(C)C)C(=O)O[C@@H]2C)c(N)c1=O` [Actinomycin D] (I: T[dV]P[Sar][NMeV] / II: T[dV]P[Sar][NMeV]; ester I:1-I:C, II:1-II:C; linker I:N-II:N via Actinocin(9to1)), the “Effect on PNC (cell negative for PNC)” value (0.04 μg/ml, 2 hours) is reported as 100% cell negative for PNC. As to `COc1cccc2c1C(=O)c1c(O)c3c(c(O)c1C2=O)C[C@@](O)(C(=O)CO)C[C@@H]3O[C@H]1C[C@H](N)[C@H](O)[C@H](C)O1` [Adriamycin], where the note is “5 to 40 μM, 16 hours”, the “Effect on PNC” value is reported as “No effect on PNC structure”. With `CC[C@@]1(O)C(=O)OCc2c1cc1n(c2=O)Cc2cc3ccccc3nc2-1` [Campothecin], the “Effect on PNC (cell negative for PNC)” value (1.25 to 2.5 μg/ml, 1 hour) turned out to be 100% cell negative for PNC. Regarding `N.N.[Cl][Pt][Cl]` [Cisplatin], for the setting “0.5 μg/ml, 5 hours”, the “Effect on PNC (cell negative for PNC)” value is reported as 95% cell negative for PNC. For the compound `Nc1ccn([C@@H]2O[C@H](CO)[C@@H](O)[C@@H]2O)c(=O)n1` [Cytosine Arabinoside], under “10 to 40 μg/ml, 16 hours”, the “Effect on PNC” value is recorded as “No effect on PNC structure”. Regarding `NC(=O)NO` [Hydroxyurea], for the setting “0.5 to 1.5 μM, 16 hours”, the “Effect on PNC” value is listed as “No effect on PNC structure”.

Take `CN(Cc1cnc2nc(N)nc(N)c2n1)c1ccc(C(=O)N[C@@H](CCC(=O)O)C(=O)O)cc1` [Methotrexate]: the “Effect on PNC (cells negative for PNC)” value came to 30% cells negative for PNC (0.5 μg/ml, 16 hours); 60% cells negative for PNC (1.0 μg/ml, 16 hours); 80% cells negative for PNC (2.5 μg/ml, 16 hours). Further, the “Response of PNC prevalence to dose” value (0.5 to 2.5 μg/ml, 16 hours) is on record as “dose-dependent”. As for `CC(=O)O[C@H]1C(=O)[C@@]2(C)[C@H]([C@H](OC(=O)c3ccccc3)[C@]3(O)C[C@H](OC(=O)[C@H](O)[C@@H](NC(=O)c4ccccc4)c4ccccc4)C(C)=C1C3(C)C)[C@]1(OC(C)=O)CO[C@@H]1C[C@@H]2O` [Paclitaxel], under “5 to 40 μM, 16 hours”, the “Effect on PNC” value is listed as “No effect on PNC structure”. The same measure, in the same setting: as for `CC[C@]1(O)C[C@H]2CN(CCc3c([nH]c4ccccc34)[C@@](C(=O)OC)(c3cc4c(cc3OC)N(C=O)[C@H]3[C@@](O)(C(=O)OC)[C@H](OC(C)=O)[C@]5(CC)C=CCN6CC[C@]43[C@@H]65)C2)C1` [Vincristine], the entry is “No effect on PNC structure”.
